Measured values taken from the OPERA property sets (Mansouri et al. 2018).

Settings: for log10 biotransformation half-life (days) / log10 BCF: fish

Compound | boiling point [°C] | melting point [°C] | further results
N#CCCN(CCOC(=O)c1ccccc1)c1ccc(N=Nc2ccc([N+](=O)[O-])cc2)cc1 |  |  | ready biodegradability: not readily biodegradable
C=CCCCCCCCCCC | 214 | -35.2 | log10 vapour pressure (mmHg): -0.797; log10 biotransformation half-life (days): 0.83
Cc1ccc[n+]([O-])c1 |  | 39 | 
CCOP(=S)(OCC)Oc1nc(Cl)c(Cl)cc1Cl |  | 42 | log10 Henry constant (atm·m³/mol): -5.53; log10 Koc (L/kg): 3.7; log10 vapour pressure (mmHg): -4.69; ready biodegradability: not readily biodegradable; log10 BCF: 3.18; log10 biotransformation half-life (days): 0.77
Cc1cccc[n+]1[O-] |  | 49 | 
CCOC(CN)OCC | 163 | -78 | 
Cc1ncc(CSSCc2cnc(C)c(O)c2CO)c(CO)c1O |  | 219 | 
O=C(O)CCS |  | 18 | log10 vapour pressure (mmHg): -1.3
C=CC(C)CCCC(C)C (stereo unspecified) | 154 |  | 
O=C1OC(=O)C2C1C1(Cl)C(Cl)=C(Cl)C2(Cl)C1(Cl)Cl (stereo unspecified) |  | 233 | 
CCCCCCCC(=O)c1ccccc1 | 285 | 22.8 | 
CCOC(=O)CC(=O)CC | 191 |  | 
C=C(C)CCCCCCCCCC |  |  | log10 biotransformation half-life (days): 0.64
Cc1nc2ccccc2s1 | 238 | 14 | log10 vapour pressure (mmHg): -1.52
Br.CCNCC |  | 219 | 
ClC(Cl)(Cl)I | 142 | -7.8 | 
CCN(CC)C(=O)c1ccc(O)c(OC)c1 |  | 95 | 
CCCCCCCCCCCCCCCCCCC1CC(=O)OC1=O (stereo unspecified) |  |  | ready biodegradability: not readily biodegradable
O=C1CCCCC1C1=CCCCC1 (stereo unspecified) | 265 | -78 | ready biodegradability: not readily biodegradable; log10 BCF: 0.7
CCOC(=O)CCCCCC(=O)OCC | 254 | -24 | log10 vapour pressure (mmHg): -2.51
c1ccc(Nc2ccccc2)cc1 | 302 | 52.9 | log10 Koa: 7.64; log10 Koc (L/kg): 2.78; log10 vapour pressure (mmHg): -3.17; ready biodegradability: not readily biodegradable; log10 BCF: 2.18; log10 biotransformation half-life (days): 0.35
O=C1C[C@@H]2OCC=C3CN4CC[C@]56c7ccccc7N1[C@H]5[C@H]2[C@H]3C[C@H]46 |  | 287 | 
Cl.N=C(N)SCc1ccccc1 |  | 173 | 
Cc1cccc(C)c1NC1=NCCCS1 |  | 140 | 
CC(C)(CC(=O)O)CC(=O)O |  | 104 | 

Compound | boiling point [°C] | melting point [°C] | further results
CCOO | 95 | -100 | log10 Henry constant (atm·m³/mol): -5.53
Cc1cc(=O)[nH]o1 |  | 86.5 | log10 vapour pressure (mmHg): -2.86
C/C=C(/C)c1ccccc1 | 195 |  | 
CNCCS(=O)(=O)O |  | 242 | ready biodegradability: readily biodegradable
CC(=O)OCCCCl | 164 |  | 
O=S(=O)(O)c1ccc2c(O)cc(S(=O)(=O)O)cc2c1 |  |  | ready biodegradability: readily biodegradable
CCC(C(C)C)C(C)C | 137 | -122 | log10 vapour pressure (mmHg): 1
CN(C)c1cccc(C(=O)O)c1 |  |  | ready biodegradability: not readily biodegradable
CCC(=O)O[C@H]1CC[C@H]2[C@@H]3CCC4=CC(=O)CC[C@]4(C)[C@H]3CC[C@]12C |  | 120 | 
COc1ccccc1N=Nc1ccccc1 |  | 41 | 
O=C(CCl)Oc1ccccc1 | 232 | 44.5 | 
CCCCCCCCCCC(=O)O | 280 | 28.6 | log10 vapour pressure (mmHg): -2.42; ready biodegradability: readily biodegradable
NS(=O)(=O)c1ccc(N2CCCCS2(=O)=O)cc1 |  | 181 | 
CC(=O)OC1CCC2(C)C(CCC3(C)C2C(=O)C=C2C4CC(C)(C(=O)O)CCC4(C)CCC23C)C1(C)C (stereo unspecified) |  | 323 | 
COC(=O)C(F)(F)F | 43.2 |  | 
Nc1ccc(Nc2ccc(N)cc2)cc1 |  | 158 | 
NS(=O)(=O)c1cc2c(cc1C(F)(F)F)NCNS2(=O)=O |  | 270 | 
Cc1ccc(Cl)c(C)c1 | 184 | -32.5 | 
O[C@@H]1CCCC[C@H]1Cl |  | 29 | 
COC(=O)C1=C(C)NC(C)=C(C(=O)OC)C1c1ccccc1[N+](=O)[O-] |  | 173 | 
c1ccc2c(c1)Cc1c-2ccc2ccccc12 | 405 | 190 | log10 Henry constant (atm·m³/mol): -4.58; log10 biodegradation half-life (days): 2.15; log10 vapour pressure (mmHg): -6.61
CCCCOC(=O)COc1cc(Cl)c(Cl)cc1Cl |  | 28.5 | log10 vapour pressure (mmHg): -4.82
C[C@]12CC[C@H](O[C@@H]3O[C@H](CO[C@@H]4O[C@H](CO)[C@@H](O)[C@H](O)[C@H]4O)[C@@H](O)[C@H](O)[C@H]3O)C[C@@H]1CC[C@@H]1[C@@H]2CC[C@]2(C)[C@@H](C3=CC(=O)OC3)CC[C@]12O |  | 269 | 
O=[N+]([O-])c1cc([N+](=O)[O-])c(F)cc1F |  | 73 | 
OC(Cn1cncn1)(c1ccc(F)cc1)c1ccccc1F (stereo unspecified) |  | 130 | log10 Koc (L/kg): 1.88; log10 vapour pressure (mmHg): -10.3

Compound | boiling point [°C] | melting point [°C] | further results
O=S(=O)(CCl)c1ccccc1 |  | 54 | 
CCCCCC(C)=O | 151 | -35 | log10 Henry constant (atm·m³/mol): -3.77; log10 Koa: 4.15; log10 vapour pressure (mmHg): 0.586
CC=C(Br)Br | 125 |  | 
CCCCCCCCCCCCOCCCCCCCCCCCC |  |  | ready biodegradability: readily biodegradable
CC(C)(C)C1CCC(=O)CC1 |  | 48.5 | 
COc1cc(C)ccc1O | 221 | 5.5 | log10 Henry constant (atm·m³/mol): -5.88
CC(C)=CCC[C@@H](C)C1=C(O)C(=O)C(C)=CC1=O |  | 104 | 
CN(C)S(=O)N(C)C | 209 | 31 | 
Cc1cnc(C)c(C)c1 | 184 |  | 
CCCCCCCCCCCCCCC(=O)OC |  | 18.5 | log10 vapour pressure (mmHg): -3.79
CCCCc1ccncc1 | 209 |  | 
COC(=O)c1ccc(I)cc1 |  | 115 | 
CCOC(CN(CC)CC)OCC | 194 |  | 
C=C1N(C)c2ccccc2C1(C)C | 248 |  | 
CC1(C)CC(O)CC(C)(CN)C1 (stereo unspecified) | 265 | 45.5 | 
CCC(Cl)Cl | 88.1 |  | log10 vapour pressure (mmHg): 1.83
COc1ccccc1I | 241 |  | 
Clc1cc(-c2ccccc2)c(Cl)c(Cl)c1Cl |  |  | log10 Koa: 8.74; log10 vapour pressure (mmHg): -4.43
CC(CCC(=O)O)n1nnc2ccccc21 (stereo unspecified) |  | 86 | 
C/C=C/CCCCCCCC | 194 | -57.4 | 
Clc1cccc(-c2cccc(Cl)c2Cl)c1Cl |  |  | log10 Henry constant (atm·m³/mol): -4; log10 vapour pressure (mmHg): -4.13; log10 BCF: 4.23; log10 biotransformation half-life (days): 2
Nc1ncnc2c1ncn2[C@H]1CC[C@@H](CO)O1 |  | 185 | 
CC=CCCCCC | 124 | -80 | log10 vapour pressure (mmHg): 1.21
O=c1[nH]cc(Br)c(=O)[nH]1 |  | 310 | 
C1CCSCC1 | 142 | 19 | log10 vapour pressure (mmHg): 0.895

Compound | boiling point [°C] | melting point [°C] | further results
COC(=O)C(C)N(C(=O)c1ccco1)c1c(C)cccc1C (stereo unspecified) |  | 70 | log10 vapour pressure (mmHg): -6.28
Clc1ccc2ccccc2n1 | 266 | 38 | 
O=C(Cl)c1c(F)c(F)c(F)c(F)c1F | 158 |  | 
CC1CC(OC(=O)C(O)c2ccccc2)CC(C)(C)N1C (stereo unspecified) |  | 113 | 
O=C(c1ccccc1O)c1ccccc1O | 333 | 59.5 | 
CCCc1ccc(C(=O)O)cc1 |  | 143 | 
CC(=O)OCC=Cc1ccccc1 | 265 |  | 
CCCCCCCCCCCCCCCCCC(=O)NCO |  |  | ready biodegradability: readily biodegradable
c1ccc2c(c1)CC1c3ccccc3CCN1C2 (stereo unspecified) |  | 85 | ready biodegradability: not readily biodegradable
C=CCCCCCCCCCCCCCCCC |  | 17.5 | log10 vapour pressure (mmHg): -4.17
NNC(=O)c1ccc(N)cc1O |  | 195 | 
Nc1cccc(Cl)c1C(=O)O |  | 159 | 
O=C(O)c1c(Cl)c(Cl)c(Cl)c(Cl)c1C(O)=Nc1cccc(Cl)c1Cl |  | 198 | 
Nc1ccc(Cl)nc1Cl |  | 119 | 
Oc1cc(Cl)c(Cl)c(Cl)c1 | 275 | 101 | log10 Koc (L/kg): 3.56
C1CCCCCCCCC1 | 202 | 10 | log10 vapour pressure (mmHg): -0.252
Clc1cccc(-c2c(Cl)ccc(Cl)c2Cl)c1Cl |  |  | log10 Koa: 8.8
C=C(C)C(=O)OCCO |  |  | log10 vapour pressure (mmHg): -0.9; ready biodegradability: readily biodegradable
CCc1nc(N)nc(N)c1-c1ccc(Cl)cc1 |  | 234 | 
C=COCCC | 65 |  | 
Nc1cccc2cccnc12 |  | 70 | 
c1ccc(Nc2ccccn2)nc1 | 308 | 90.5 | 
Clc1cc(Cl)c(OCC#CI)cc1Cl |  | 114 | 
CCC(Br)Br | 134 |  | 
c1ccc2c(c1)CCC2 | 178 | -51.4 | log10 Henry constant (atm·m³/mol): -3.7; log10 biodegradation half-life (days): 0.778; log10 vapour pressure (mmHg): 0.166

Compound | boiling point [°C] | melting point [°C] | further results
CC1=C(C(=O)Nc2ccccc2)S(=O)(=O)CCO1 |  | 120 | log10 Koc (L/kg): 1.98; log10 vapour pressure (mmHg): -7.38
c1ccc([C@@H]2CCCNC2)cc1 | 257 | 14.5 | 
CC(O)CO (stereo unspecified) | 188 | -60 | log10 Koc (L/kg): 0.36; log10 vapour pressure (mmHg): -0.889; ready biodegradability: readily biodegradable
C[Si](Cl)(Cl)Cl | 65.6 | -90 | log10 vapour pressure (mmHg): 2.22
CC(C)(C)C(=O)c1ccccc1 | 220 |  | 
Clc1cc2oc3ccc(Cl)c(Cl)c3c2cc1Cl |  | 210 | log10 Koa: 9.78; log10 vapour pressure (mmHg): -7.74
CCCNCCC | 109 | -63 | log10 Henry constant (atm·m³/mol): -4.29; log10 Koa: 3.59; log10 vapour pressure (mmHg): 1.3; ready biodegradability: readily biodegradable
C[C@]12CCC(=O)C(O)=C1CC[C@@H]1[C@@H]2CC[C@@]2(C)[C@H]1CC[C@]2(C)O |  | 170 | 
CCC(C)C(C)(C)C (stereo unspecified) |  |  | log10 biodegradation half-life (days): 0.845
CC(C)(O)CCO | 202 |  | 
C=C(C)COC | 68 |  | 
OCCCCO | 235 | 20.4 | log10 vapour pressure (mmHg): -1.98; ready biodegradability: readily biodegradable
c1ccc2c(c1)ccc1ccc3ccccc3c12 |  | 68 | 
C=C(C)CC(C)=O | 124 | -72.6 | log10 vapour pressure (mmHg): 1.18
Cc1cc(Cl)c(C)cc1Cl | 222 | 71 | 
CC(=O)c1cc2c(cc1C)C(C)(C)C(C)CC2(C)C (stereo unspecified) |  | 54.5 | 
C#CCCCCCCCCCCCCCCCC | 313 | 22.5 | 
CCCCOC(=O)CC(CC(=O)OCCCC)(OC(C)=O)C(=O)OCCCC |  | -80 | ready biodegradability: readily biodegradable
CCCC(=O)N(CSP(=S)(OC)OC)c1ccccc1Cl |  | 42 | 
CC(C)COC(=O)c1ccccc1 | 242 |  | 
N#Cc1c(F)c(F)c(C#N)c(F)c1F |  | 198 | 
O=C1c2ccccc2-c2ccc(O)cc21 |  | 205 | 
Cc1cccc(C)c1Br | 204 |  | 
